This is an account of results in patent US12522606B2, “Modified pyrrolo- and pyrazolo-pyrimidines for prostate cancer therapy” (University of Washington, priority 2020, dated 2026).

Data set [1] in a line: in vitro. To be noted: human, CRL-8155 lymphoblastoid cell line.
Description: (§1) HepG2 is hepatoma liver tumor cell line. CRL8155 is lymphoblastoid cell line.
Another data set is described as follows: PK Oral (MMV). The data set is classed as in vivo. To be noted: for Cmax / Tmax: in vivo.
The next data set deals with LNCaP95. In words: MTT proliferation assay, LNCaP95. To be noted: Homo sapiens, LNCaP-95; for EC50: Table 1, LNCaP95 (AR+ PCa), unit inferred; for inhibition at 10 µM: read-out: MTT % inhib @ 10 μM LNCaP95. The data set is classed as cell-based. As for the experimental part:
Anti-tumor activity was determined by screening a series of compounds against the castrate-resistant, androgen-receptor-positive, prostate cancer cell line LNCaP95. […] Inhibition of proliferation was determined based on the level of LNCaP95 cell growth suppression using an MTT assay (NAD(P)H-dependent cellular oxidoreductase enzymatic activities)) read at 72 and 96 hours after addition of the compounds. […] Each cell line was be tested in quadruplicate.

The subject of the next data set is PC3. In words: MTT proliferation assay, PC3. As to conditions: Homo sapiens; for inhibition at 10 µM: PC-3, read-out: MTT % inhib @ 10 μM PC3; for EC50: read-out: EC50 PC3.
A short description of data set [2]: in vitro. As to conditions: human, HepG2 hepatoma cell line.
Description: as §1
The nature of data set [3]: Plasma protein binding, mouse. The data set is classed as in vitro ADME.

Turning to `COCCOc1ncnc2c1c(-c1ccc3cc(OC4CC4)ccc3c1)cn2CC(C)(C)O` [Example 2, 1-(5-(6-cyclopropoxynaphthalen-2-yl)-4-(2-methoxyethoxy)-7H-pyrrolo[2,3-d]pyrimidin-7-yl)-2-methylpropan-2-ol], the CC50 in the data set “in vitro [1]” is more than 40 µM. Moreover, in the data set “PK Oral (MMV)” (dose 30.8 mg/kg), the AUC was found to be 822 µmol·min/L, the peak level (Cmax) was 34.4 µM and the Tmax was 1 h. In addition, in the data set with LNCaP95, a half-maximal effect (EC50) was put at 6 µM and the inhibition at 10 µM amounted to 32%. In the data set on PC3, the inhibition at 10 µM came to 12.8% and the EC50 was more than 20 µM. In addition, the CC50 in “in vitro [2]” is more than 40 µM.
For the compound `CCOc1ccc2cc(-c3cn(CC(C)(C)O)c4ncnc(OCCOC)c34)ccc2c1` [Example 3, 1-(5-(6-ethoxynaphthalen-2-yl)-4-(2-methoxyethoxy)-7H-pyrrolo[2,3-d]pyrimidin-7-yl)-2-methylpropan-2-ol], in “PK Oral (MMV)” (dose 25 mg/kg), the AUC was 2559 µmol·min/L, the concentration peaked (Cmax) at 5.1 µM and the Tmax is 0.667 h. Besides, in the data set on LNCaP95, the EC50 is 7 µM and the inhibition at 10 µM amounted to 36.5%. In addition, in the data set on PC3, the inhibition at 10 µM was 2.9% and the EC50 was more than 20 µM.
In turn, `COCCOc1ncnc2c1c(-c1ccc(-c3ccccc3)cc1)cn2CC(C)(C)O` [Example 4, 1-(5-(biphenyl-4-yl)-4-(2-methoxyethoxy)-7H-pyrrolo[2,3-d]pyrimidin-7-yl)-2-methylpropan-2-ol] yielded a CC50 in the data set “in vitro [1]” of more than 80 µM. In the data set with LNCaP95, the EC50 was determined as 5 µM and the inhibition at 10 µM is 36.3%. Moreover, in the data set with PC3, the inhibition at 10 µM turned out to be 13% and the EC50 is more than 20 µM.
For `CCOc1ccc2cc(-c3cn(CC(C)(C)O)c4ncnc(OCC)c34)ccc2c1` [Example 5, 1-(4-ethoxy-5-(6-ethoxynaphthalen-2-yl)-7H-pyrrolo[2,3-d]pyrimidin-7-yl)-2-methylpropan-2-ol], the CC50 in the data set “in vitro [1]” and in “in vitro [2]” was more than 80 µM throughout. Moreover, the results for the EC50 in the data set with LNCaP95 and with PC3 were 5 µM and more than 20 µM, respectively. For the same compound, the inhibition at 10 µM in the data set with LNCaP95 is 50.9%; in the data set on PC3, -3.2%.
Compound `CCOc1ncnc2c1c(-c1ccc3cc(OC4CC4)ccc3c1)cn2CC(C)(C)O` [Example 6, 1-(5-(6-cyclopropoxynaphthalen-2-yl)-4-ethoxy-7H-pyrrolo[2,3-d]pyrimidin-7-yl)-2-methylpropan-2-ol] registered a CC50 in the data set “in vitro [1]” of more than 40 µM. In “PK Oral (MMV)” (dose 24.6 mg/kg), the AUC was 400 µmol·min/L, the Cmax is 17.6 µM and the Tmax is 1 h. For the same compound, in the data set with LNCaP95, the EC50 was found to be 10 µM and the inhibition at 10 µM stood at 20.3%. In the data set with PC3, the inhibition at 10 µM was 10.1% and the EC50 is more than 20 µM. In the data set “in vitro [2]”, this compound displayed a half-maximal cytotoxic concentration (CC50) of more than 40 µM.
As for `CNc1ncnc2c1c(-c1ccc(-c3ccccc3)cc1)nn2CC(C)(C)O` [Example 12, 1-(3-(biphenyl-4-yl)-4-(methylamino)-1H-pyrazolo[3,4-d]pyrimidin-1-yl)-2-methylpropan-2-ol], the CC50 in the data set “in vitro [1]” and in “in vitro [2]” was more than 80 µM throughout. Moreover, the values for the EC50 in the data set with LNCaP95 and in the data set with PC3 were 12 µM and more than 20 µM, respectively. Besides, the inhibition at 10 µM with LNCaP95 was 36.7%; in the data set with PC3, 8.4%.
Consider `CNc1ncnc2c1c(-c1ccc(-c3ccccc3)cc1)cn2CC(C)(C)O` [Example 13, 1-(5-(biphenyl-4-yl)-4-(methylamino)-7H-pyrrolo[2,3-d]pyrimidin-7-yl)-2-methylpropan-2-ol], for which the CC50 in the data set “in vitro [1]” and in the data set “in vitro [2]” was more than 80 µM in each case. The half-maximal effective concentration (EC50) in the data set with LNCaP95 was 12 µM; with PC3, more than 20 µM. For the same compound, the inhibition at 10 µM was 40.9% in the data set with LNCaP95 and -4.3% in the data set with PC3.
`CNc1ncnc2c1c(-c1cccc(Cl)c1)cn2CC(C)(C)OC` [Example 22, 5-(3-chlorophenyl)-7-(2-methoxy-2-methylpropyl)-N-methyl-7H-pyrrolo[2,3-d]pyrimidin-4-amine]: the CC50 in the data set “in vitro [1]” and in “in vitro [2]” was more than 80 µM in each case. Further, the EC50 in the data set with LNCaP95 was 10 µM; with PC3, more than 20 µM. Moreover, the inhibition at 10 µM was determined as 40.1% in the data set on LNCaP95 and 4.3% with PC3.
In the case of `CC(C)(O)Cn1cc(-c2ccc3cc(OC4CC4)ccc3c2)c2c(NCCOCCOCCOCCN)ncnc21` [Example 28, 1-(4-(2-(2-(2-(2-aminoethoxy)ethoxy)ethoxy)ethylamino)-5-(6-cyclopropoxynaphthalen-2-yl)-7H-pyrrolo[2,3-d]pyrimidin-7-yl)-2-methylpropan-2-ol], the CC50 was found to be 15.4 µM in “in vitro [1]” and 30.7 µM in the data set “in vitro [2]”. Besides, the EC50 with LNCaP95 was 4 µM; with PC3 it was more than 20 µM. Also, the inhibition at 10 µM in the data set with LNCaP95 is 43%; in the data set on PC3, -8.3%.
As to `CCOCCNc1ncnc2c1c(-c1ccc3cc(OCC)ccc3c1)cn2CC(C)(C)O` [Example 31, 1-(4-(2-ethoxyethylamino)-5-(6-ethoxynaphthalen-2-yl)-7H-pyrrolo[2,3-d]pyrimidin-7-yl)-2-methylpropan-2-ol], in the data set “PK Oral (MMV)” (dose 25 mg/kg), the area under the curve (AUC) was determined as 1724 µmol·min/L, the peak level (Cmax) was 7.8 µM and the Tmax was 1 h. In the data set on LNCaP95, the EC50 came out at 10 µM and the inhibition at 10 µM was determined as 34.9%. For the same compound, in the data set on PC3, the inhibition at 10 µM worked out at 14.9% and the EC50 is more than 20 µM.
`CNc1ncnc2c1c(-c1ccc3cc(OC(C)C)ccc3c1)cn2CC(C)(C)OC` [Example 32, 5-(6-isopropoxynaphthalen-2-yl)-7-(2-methoxy-2-methylpropyl)-N-methyl-7H-pyrrolo[2,3-d]pyrimidin-4-amine]: the fraction unbound in data set [3] was 0.0069. Further, the EC50 with LNCaP95 is 3 µM; in the data set with PC3 it was more than 20 µM. Further, the inhibition at 10 µM was 5.1% in the data set with LNCaP95 and 14.6% with PC3.
Turning to `CCOCCNc1ncnc2c1c(-c1ccc(-c3ccccc3)cc1)cn2CC(C)(C)O` [Example 37, 1-(5-(biphenyl-4-yl)-4-(2-ethoxyethylamino)-7H-pyrrolo[2,3-d]pyrimidin-7-yl)-2-methylpropan-2-ol], the EC50 was more than 10 µM in the data set with LNCaP95 and more than 20 µM with PC3. Further, the inhibition at 10 µM is 8.4% in the data set on LNCaP95 and 9% with PC3.
For `CCOCCNc1ncnc2c1c(-c1ccc(-c3ccc(OC)cc3)cc1)cn2CC(C)(C)O` [Example 38, 1-(4-(2-ethoxyethylamino)-5-(4′-methoxybiphenyl-4-yl)-7H-pyrrolo[2,3-d]pyrimidin-7-yl)-2-methylpropan-2-ol] the same measures were 4 µM, more than 20 µM, 39.5% and 11.6%.
For `CCOCCNc1ncnc2c1c(-c1ccc(-c3ccc(CC)cc3)cc1)cn2CC(C)(C)O` [Example 39, 1-(4-(2-ethoxyethylamino)-5-(4′-ethylbiphenyl-4-yl)-7H-pyrrolo[2,3-d]pyrimidin-7-yl)-2-methylpropan-2-ol] the same measures were more than 10 µM, more than 20 µM, 29.2% and 8.3%.
For `CCOCCNc1ncnc2c1c(-c1ccc(-c3ccc(Br)cc3)cc1)cn2CC(C)(C)O` [Example 40, 1-(5-(4′-bromobiphenyl-4-yl)-4-(2-ethoxyethylamino)-7H-pyrrolo[2,3-d]pyrimidin-7-yl)-2-methylpropan-2-ol] the same measures were more than 10 µM, more than 20 µM, -0.2% and 11.1%.
In the case of `CCOc1ccc2cc(-c3cn(CC(C)(C)O)c4ncnc(NC5CC5)c34)ccc2c1` [Example 41, 1-(4-(cyclopropylamino)-5-(6-ethoxynaphthalen-2-yl)-7H-pyrrolo[2,3-d]pyrimidin-7-yl)-2-methylpropan-2-ol], the values for the EC50 in the data set on LNCaP95 and in the data set with PC3 were 6 µM and 10 µM, respectively.
Taken in the same sequence, the figures for `COc1ccc2cc(-c3cn(CC(C)(C)O)c4ncnc(NC5CC5)c34)ccc2c1` [Example 42, 1-(4-(cyclopropylamino)-5-(6-methoxynaphthalen-2-yl)-7H-pyrrolo[2,3-d]pyrimidin-7-yl)-2-methylpropan-2-ol] were 20 µM and more than 20 µM.
For `CC(C)Nc1ncnc2c1c(-c1ccc3cc(OC4CC4)ccc3c1)cn2CC(C)(C)O` [Example 43, 1-(5-(6-cyclopropoxynaphthalen-2-yl)-4-(isopropylamino)-7H-pyrrolo[2,3-d]pyrimidin-7-yl)-2-methylpropan-2-ol] the same measures were 10 µM and 20 µM.
Turning to `CCOc1ccc2cc(-c3cn(CC(C)(C)O)c4ncnc(NC(C)C)c34)ccc2c1` [Example 44, 1-(5-(6-ethoxynaphthalen-2-yl)-4-(isopropylamino)-7H-pyrrolo[2,3-d]pyrimidin-7-yl)-2-methylpropan-2-ol], the EC50 in the data set on LNCaP95 came to 5 µM; in the data set on PC3, 20 µM.
For `COc1ccc2cc(-c3cn(CC(C)(C)O)c4ncnc(NC(C)C)c34)ccc2c1` [Example 45, 1-(4-(isopropylamino)-5-(6-methoxynaphthalen-2-yl)-7H-pyrrolo[2,3-d]pyrimidin-7-yl)-2-methylpropan-2-ol] the same measures were 5 µM and more than 20 µM.
